From patent publication US12077503B2, “Substituted cyclic amides and their use as herbicides” (FMC CORPORATION, priority 2015, dated 2024)

What was measured:
Assay type in all cases: in vivo
[1] = tested on: ragweed (common ragweed, Ambrosia elatior); experiment: Test A postemergence; details: Ambrosia artemisiifolia, post-emergence, 240 h, 125 g ai/ha, Postemergence; visual injury after approximately 10 d; 0 to 100 scale where 0 is no effect and 100 is complete control; read-out: Plant response rating, Ragweed
Summary of the method: (§1)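 Preemergence directed soil spray on seeded pots, or postemergence application to plants 2–10 cm, one- to two-leaf. Solvent mixture non-phytotoxic, with surfactant. Scored ~10 d later, visually, 0–100 vs untreated.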

[2] = tested on: ryegrass, Italian (Italian ryegrass, Lolium multiflorum); experiment: Test A postemergence; details: Lolium multiflorum, post-emergence, 240 h, 125 g ai/ha, Postemergence; visual injury after approximately 10 d; 0 to 100 scale where 0 is no effect and 100 is complete control; read-out: Plant response rating, Ryegrass, Italian
Summary of the method: as §1

[3] = tested on: wheat (Triticum aestivum); experiment: Test A postemergence; details: Triticum aestivum, post-emergence, 240 h, 125 g ai/ha, Postemergence; visual injury after approximately 10 d; 0 to 100 scale where 0 is no effect and 100 is complete control; read-out: Plant response rating, Wheat
Summary of the method: as §1

[4] = tested on: barnyardgrass (Echinochloa crus-galli); experiment: Test A postemergence; details: Echinochloa crus-galli, post-emergence, 240 h, 125 g ai/ha, Postemergence; visual injury after approximately 10 d; 0 to 100 scale where 0 is no effect and 100 is complete control; read-out: Plant response rating, Barnyardgrass
Summary of the method: as §1

[5] = tested on: blackgrass (Alopecurus myosuroides); experiment: Test A postemergence; details: Alopecurus myosuroides, post-emergence, 240 h, 125 g ai/ha, Postemergence; visual injury after approximately 10 d; 0 to 100 scale where 0 is no effect and 100 is complete control; read-out: Plant response rating, Blackgrass
Summary of the method: as §1

corn (Zea mays) = experiment: Test A postemergence; details: Zea mays, post-emergence, 240 h, 125 g ai/ha, Postemergence; visual injury after approximately 10 d; 0 to 100 scale where 0 is no effect and 100 is complete control
Summary of the method: as §1

[6] = tested on: pigweed (Amaranthus retroflexus); experiment: Test A postemergence; details: Amaranthus retroflexus, post-emergence, 240 h, 125 g ai/ha, Postemergence; visual injury after approximately 10 d; 0 to 100 scale where 0 is no effect and 100 is complete control; read-out: Plant response rating, Pigweed
Summary of the method: as §1

[7] = tested on: giant foxtail (Setaria faberii); experiment: Test A postemergence; details: Setaria faberi, post-emergence, 240 h, 125 g ai/ha, Postemergence; visual injury after approximately 10 d; 0 to 100 scale where 0 is no effect and 100 is complete control; read-out: Plant response rating, Foxtail, Giant
Summary of the method: as §1

Kochia (Kochia scoparia) [8] = experiment: Test A postemergence; details: Bassia scoparia, post-emergence, 240 h, 125 g ai/ha, Postemergence; visual injury after approximately 10 d; 0 to 100 scale where 0 is no effect and 100 is complete control; read-out: Plant response rating, Kochia
Summary of the method: as §1

[9] = tested on: Galium (catchweed bedstraw, Galium aparine); experiment: Test A postemergence; details: Galium, post-emergence, 240 h, 125 g ai/ha, Postemergence; visual injury after approximately 10 d; 0 to 100 scale where 0 is no effect and 100 is complete control; read-out: Plant response rating, Galium
Summary of the method: as §1

[10] = tested on: sedge, umbrella (small-flower umbrella sedge, Cyperus difformis); experiment: Test B flooded paddy test; details: Cyperus difformis, 250 g ai/ha, Flood; 0 to 100 scale where 0 is no effect and 100 is complete control; read-out: Sedge, Umbrella plant response rating
Summary of the method: (§2)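 2-leaf plants; pots flooded 3 cm over soil; cpd added to paddy water; depth held; greenhouse 13–15 d; visual rating vs controls, 0 = no effect, 100 = complete control.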

[11] = tested on: barnyardgrass (Echinochloa crus-galli); experiment: Test B flooded paddy test; details: Echinochloa crus-galli, Flood, 250 g ai/ha; scale of 0 to 100 where 0 is no effect and 100 is complete control; read-out: Barnyardgrass plant response rating
Summary of the method: as §2

[12] = tested on: ducksalad (Heteranthera limosa); experiment: Test B flooded paddy test; details: Heteranthera limosa, Flood, 250 g ai/ha; scale of 0 to 100 where 0 is no effect and 100 is complete control; read-out: Ducksalad plant response rating
Summary of the method: as §2

rice (Oryra sativa) = experiment: Test B flooded paddy test; details: Oryza sativa, Flood, 250 g ai/ha; scale of 0 to 100 where 0 is no effect and 100 is complete control; read-out: Rice plant response rating
Summary of the method: as §2

[13] = tested on: ragweed (common ragweed, Ambrosia elatior); experiment: Test A preemergence; details: Ambrosia artemisiifolia, pre-emergence, 240 h
Summary of the method: as §1

[14] = tested on: ryegrass, Italian (Italian ryegrass, Lolium multiflorum); experiment: Test A preemergence; details: Lolium multiflorum, pre-emergence, 240 h
Summary of the method: as §1

[15] = tested on: barnyardgrass (Echinochloa crus-galli); experiment: Test A preemergence; details: Echinochloa crus-galli, pre-emergence, 240 h
Summary of the method: as §1

[16] = tested on: pigweed (Amaranthus retroflexus); experiment: Test A preemergence; details: Amaranthus retroflexus, pre-emergence, 240 h
[17] = tested on: giant foxtail (Setaria faberii); experiment: Test A preemergence; details: Setaria faberi, pre-emergence, 240 h
Summary of the method: as §1

Kochia (Kochia scoparia) [18] = experiment: Test A preemergence; details: Bassia scoparia, pre-emergence, 240 h
Summary of the method: as §1

Question: For `COc1ccc([C@H]2CN(C)C(=O)[C@@H]2C(=O)Nc2cccc(F)c2F)cc1C(F)(F)F` [Compound 986], which pest or weed control at 125 g/ha [1] is on record?
Answer: The pest or weed control at 125 g/ha was 0%.

Question: And the pest or weed control at 125 g/ha [2]?
Answer: Its pest or weed control at 125 g/ha is 30%.

Question: And the plant injury at 125 g/ha [3]?
Answer: Its plant injury at 125 g/ha is 20%.

Question: And the pest or weed control at 125 g/ha [4]?
Answer: Its pest or weed control at 125 g/ha is 80%.

Question: What about the pest or weed control at 125 g/ha [5] of the same compound?
Answer: Its pest or weed control at 125 g/ha is 40%.

Question: And the Corn plant response rating (crop injury, 0 = no effect, 100 = complete kill) at 125 g/ha (corn (Zea mays))?
Answer: Its Corn plant response rating (crop injury, 0 = no effect, 100 = complete kill) at 125 g/ha is 80%.

Question: What about the pest or weed control at 125 g/ha [6] of the same compound?
Answer: The pest or weed control at 125 g/ha was 0%.

Question: What about the pest or weed control at 125 g/ha [7] of the same compound?
Answer: Its pest or weed control at 125 g/ha is 90%.

Question: What about the pest or weed control at 125 g/ha (Kochia (Kochia scoparia) [8]) of the same compound?
Answer: Its pest or weed control at 125 g/ha is 30%.

Question: What about the pest or weed control at 125 g/ha [9] of the same compound?
Answer: The pest or weed control at 125 g/ha was 30%.

Question: And the pest or weed control at 250 g/ha [10]?
Answer: The pest or weed control at 250 g/ha was 0%.

Question: What about the pest or weed control at 250 g/ha [11] of the same compound?
Answer: Its pest or weed control at 250 g/ha is 55%.

Question: What about the pest or weed control at 250 g/ha [12] of the same compound?
Answer: The pest or weed control at 250 g/ha was 75%.

Question: And the pest or weed control at 250 g/ha (rice (Oryra sativa))?
Answer: Its pest or weed control at 250 g/ha is 20%.

Question: And the pest or weed control at 125 g/ha ([13]; 125 g ai/ha, Preemergence, visual injury rating after approximately 10 d, read-out: Ragweed plant response rating (0 to 100 scale, 0 is no effect, 100 is complete control))?
Answer: The pest or weed control at 125 g/ha was 50%.

Question: What about the pest or weed control at 500 g/ha ([13]; 500 g ai/ha, preemergence, visual injury rating about 10 d after treatment, 0 to 100 scale (0 no effect, 100 complete control), read-out: Ragweed plant response rating) of the same compound?
Answer: The pest or weed control at 500 g/ha was 70%.

Question: What about the pest or weed control at 125 g/ha ([14]; 125 g ai/ha, Preemergence, visual injury rating after approximately 10 d, read-out: Ryegrass, Italian plant response rating (0 to 100 scale, 0 is no effect, 100 is complete control)) of the same compound?
Answer: Its pest or weed control at 125 g/ha is 60%.

Question: What about the pest or weed control at 500 g/ha ([14]; 500 g ai/ha, preemergence, visual injury rating about 10 d after treatment, 0 to 100 scale (0 no effect, 100 complete control), read-out: Ryegrass, Italian plant response rating) of the same compound?
Answer: Its pest or weed control at 500 g/ha is 80%.

Question: And the pest or weed control at 125 g/ha ([15]; 125 g ai/ha, Preemergence, visual injury rating after approximately 10 d, read-out: Barnyardgrass plant response rating (0 to 100 scale, 0 is no effect, 100 is complete control))?
Answer: Its pest or weed control at 125 g/ha is 90%.

Question: What about the pest or weed control at 500 g/ha ([15]; 500 g ai/ha, preemergence, visual injury rating about 10 d after treatment, 0 to 100 scale (0 no effect, 100 complete control), read-out: Barnyardgrass plant response rating) of the same compound?
Answer: The pest or weed control at 500 g/ha was 90%.

Question: What about the pest or weed control at 125 g/ha ([16]; 125 g ai/ha, Preemergence, visual injury rating after approximately 10 d, read-out: Pigweed plant response rating (0 to 100 scale, 0 is no effect, 100 is complete control)) of the same compound?
Answer: The pest or weed control at 125 g/ha was 60%.

Question: What about the pest or weed control at 500 g/ha ([16]; 500 g ai/ha, preemergence, visual injury rating about 10 d after treatment, 0 to 100 scale (0 no effect, 100 complete control), read-out: Pigweed plant response rating) of the same compound?
Answer: The pest or weed control at 500 g/ha was 70%.

Question: And the pest or weed control at 125 g/ha ([17]; 125 g ai/ha, Preemergence, visual injury rating after approximately 10 d, read-out: Foxtail, Giant plant response rating (0 to 100 scale, 0 is no effect, 100 is complete control))?
Answer: Its pest or weed control at 125 g/ha is 100%.

Question: And the pest or weed control at 500 g/ha ([17]; 500 g ai/ha, preemergence, visual injury rating about 10 d after treatment, 0 to 100 scale (0 no effect, 100 complete control), read-out: Foxtail, Giant plant response rating)?
Answer: The pest or weed control at 500 g/ha was 100%.

Question: What about the pest or weed control at 125 g/ha (Kochia (Kochia scoparia) [18]; 125 g ai/ha, Preemergence, visual injury rating after approximately 10 d, read-out: Kochia plant response rating (0 to 100 scale, 0 is no effect, 100 is complete control)) of the same compound?
Answer: The pest or weed control at 125 g/ha was 30%.

Question: And the pest or weed control at 500 g/ha (Kochia (Kochia scoparia) [18]; 500 g ai/ha, preemergence, visual injury rating about 10 d after treatment, 0 to 100 scale (0 no effect, 100 complete control), read-out: Kochia plant response rating)?
Answer: The pest or weed control at 500 g/ha was 70%.
